This assay relates to spiral strips of the pulmonary artery of the guinea-pig. The experiment in a line: Relaxation of potassium-depolarised, CaCl2-contracted pulmonary artery spiral strips (modified method of Godfraind and Kaba and of Schuman et al.). The settings on record: for pIC50: Cavia porcellus, 40 mmol/l potassium depolarised, contraction induced by 0.5 mmol/l CaCl2, cumulative addition in 1/2 log 10 steps, average of 4 to 6 vessel strips, read-out: IC50 (concentration of the test substance which inhibits the contraction by 50%); for Duration of action: time needed after addition of the test substance until the starting value is obtained again. The protocol: The pharmacological action of the compounds of the formula I was determined by a modified method of Godfraind and Kaba (Arch. Int. Pharmacodyn. Ther. 196, (Suppl) 35 to 49, 1972) and of Schuman et al. (Naunyn-Schmiedeberg,s Arch. Pharmacol. 289, 409 to 418, 1975). In this connection, spiral strips of the pulmonary artery of the guinea-pig are depolarised with 40 mmol/1 of potassium after equilibration in calcium-free Tyrode solution. An addition of 0.5 mmol/1 of CaCl2 then induces a contraction. The relaxing action of the test substance is determined by cumulative addition in 1/2 log 10 stepped concentrations. From the concentration-effect curve (abscissa: -log mol/1 of test substance, ordinate: % inhibition of the maximum contraction, average value of 4 to 6 vessel strips), the concentration of the test substance is determined which inhibits the contraction by 50% (=IC50, mol/1). The duration of action of the test substance is given by the time which is needed after the addition of the test substance until the starting value is obtained again. […] On the other hand, the similarly active compound SIN-1 is clearly surpassed by the compounds according to the invention with respect to its duration of action.

pIC50: −log10 of the molar value. Where a name gives a salt, the structure may show the parent alone.

For `CC(C)C(=O)N=c1c[n+](N2CCN(S(C)(=O)=O)CC2(C)C)[n-]o1` [CH3, drawing 12], the pIC50 was 5.52 and the Duration of action is 210 min.

Regarding `Cl.N=c1c[n+](N2CCOCC2)[n-]o1` [SIN-1, 3Morpholinosydnone imine hydrochloride, reference compound], the pIC50 is 6.00 and the Duration of action is 80 min.

With `CCOC(=O)[N-]c1cn(N2CCOCC2)n[o+]1` [Molsidomine, NEthoxycarbonyl-3-morpholinosydnone imine, reference compound], the pIC50 was 3.52 and the Duration of action is 100 min.

As to `CN(C)S(=O)(=O)N1CCN([n+]2cc(=N)o[n-]2)C(C)(C)C1` [Example 3, 3-(2,2-Dimethyl-4-dimthylaminosulphonylpiperazin-1-yl)sydnone imine hydrochloride], the pIC50 is 5.60 and the Duration of action amounted to 200 min.

As to `CC1(C)CN(S(C)(=O)=O)CCN1[n+]1cc(=N)o[n-]1.Cl` [Example 1, 3-(2,2-Dimethyl-4-methanesulphonylpiperazin-1-yl)sydnone imine hydrochloride], the pIC50 is 5.72 and the Duration of action came out at 200 min.

Take `Cc1ccc(S(=O)(=O)N2CCN([n+]3cc(=N)o[n-]3)C(C)(C)C2)cc1.Cl` [Example 2, 3-(2,2-Dimethyl-4-tosylpiperazin-1-yl)sydnone imine hydrochloride]: the pIC50 is 6.19 and the Duration of action worked out at 220 min.

Values taken from patent US5155109A, “3-piperazinosydnone imines, process for their preparation and their use” (Cassella Aktiengesellschaft, priority 1990, dated 1992).
